5 molecules from patent US9101565B2, “Dissolution stability of calcium carbonate tablets” (TAKEDA NYCOMED AS, priority 2008, dated 2015) can be followed below.

One data set in a line: Test of compactability of different sugar alcohols (crushing strength vs compression force). In kind it is physicochemical. Particulars: pure sugar alcohol compacts, single punch press, punch and die lubricated with magnesium stearate; FIG. 1. As to the method: Tablets comprising either Neosorb P100T, Sorbidex P1666BO, Isomalt ST-PF, Maltisorb P90, Mannitol 60 or Xylitol CM50 were compressed on an instrumented Fette Exacta 1/F single punch tablet press, only maximum compression force on the upper punch was recorded.
Before the compression of each tablet the punch tips and the die bore were lubricated with a 5% suspension of magnesium stearate in acetone. The acetone was allowed to evaporate before compression of the tablet.
The sugar alcohol was weighed, transferred to the die bore and then compressed, see table 1. Immediately after ejection the tablet was tested for crushing strength.
From FIG. 1 (each point is the average of three measurements) it is seen that the assumption was correct. Therefore, test of particle size was not repeated for the other sugar alcohols.
The tabletting machine used is equipped with data acquisition that as a minimum measure the compaction force applied. However, any tabletting machine may be used provided the compaction force applied can be measured.
The crushing strength has been measured by use of a Schleuniger-2E from the company Dr. Schleuniger and determined as the mean of measuring the crushing strength for 10 individual tablets.
For the molecule `OC[C@@H](O)[C@@H](O[C@H]1O[C@H](CO)[C@@H](O)[C@H](O)[C@H]1O)[C@H](O)[C@@H](O)CO` [Maltitol], the “compactability (slope of the correlation between compression force and crushing strength)” value was “very poor compactability”.
Same read-out and setting: in the case of `OC[C@@H](O)[C@@H](O)[C@H](O)[C@H](O)CO` [mannitol, Mannitol] it was “very poor compactability”; in that of `OC[C@@H](O)[C@@H](O)[C@H](O)[C@@H](O)CO` [sorbitol, Sorbitol], “best compactability”.
Take `OC[C@@H](O)[C@H](O)[C@@H](O)CO` [xylitol, Xylitol]: the “compactability (slope of the correlation between compression force and crushing strength)” value is “very poor compactability”.
Still for that read-out and setting: in the case of Isomalt it was “Sorbitol is followed by isomalt”.

The same data set, now with this note: two mean particle sizes, 38 μm and 110 μm; FIG. 1.
As for `OC[C@@H](O)[C@@H](O)[C@H](O)[C@@H](O)CO` [sorbitol, Sorbitol], the “tablet crushing strength, dependence on particle size” value was “independent of particle size”.
